Values of other authors as cited in paper PMC5680437 (Journal of Clinical & Translational Endocrinology, 2015).

Legend:
[1] = 0.2 U/kg dose; ref Heise et al. [20]
[2] = subcutaneous; ref Morrow et al. [18]
healthy volunteers = settings: ref Arnolds et al. [19]

| Substance | AUC for the glucose infusion rate in the first hour [1] [mg/kg] | Time to 50% of maximal concentration within the first hour [2] [min] | AUC for glucose infusion rate (to maintain euglycemia) (healthy volunteers) [mg/kg] |
| --- | --- | --- | --- |
| insulin glulisine | 102.3 | 21 | 30 |
| insulin lispro | 83.1 | 31 | – |
| insulin aspart | – | 32 | 16 |
